Laboratory results taken from patent US20260242359A1, “IRHOM2 INHIBITORS AND USES THEREOF” (NEW YORK SOCIETY FOR THE RELIEF OF THE RUPTURED AND …, priority 2023, published 2026).

Legend:
[1] = system: TNFα release from LPS-stimulated THP-1 cells (iRhom2/ADAM17-dependent); assay: Primary screen (Example 1b): LPS-stimulated TNFα release from THP-1 cells, HTRF; type: cell-based; details: Homo sapiens, overnight pre-incubation, LPS 100 ng/mL, 3 h, normalized against 10 μM Batimastat
Procedure: (§1) Two separate screens to identify novel small molecule inhibitors of iRhom2/ADAM17 activity were developed. […] Therefore, the primary screen for small molecule inhibitors of iRhom2/ADAM17 was a screen for inhibitors that blocked the release of TNFα from LPS-stimulated THP-1 human myeloid cells, a process that depends on iRhom2 and ADAM17. Since the release of TNFα from THP-1 cells can be blocked at many stages of the LPS/TLR4/iRhom2/ADAM17 pathway, a secondary screen was performed for another iRhom2/ADAM17 selective substrate, Kit-ligand 2 (KL-2) (Maretzky T et al. (July 2013), “iRhom2 controls the substrate selectivity of stimulated ADAM17-dependent ectodomain shedding”, PNAS 110(28): 11433-11438) in a different human cell type, human embryonic kidney cells (HEK 293).
THP-1 cells were plated in low volume 384 wells (10,000 cells per well in 12.6 μL RPMI medium) together with inhibitors or 10 μM BB94 and incubated over night. The next day, TNFα shedding was initiated by stimulation of THP-1 cells with 100 ng/mL LPS (1.8 μL of an 800 ng/mL LPS stock) for 3 hrs at 37° C. The extent of released TNFα was detected with the corresponding HTRF antibodies labeled with europium cryptate (donor) and d2 (acceptor). The HTRF signal was generated by proximity of europium cryptate and d2. All detection reagents were purchased from Cisbio. TNFα detection was performed according to the manufacturer's protocol (Product Insert for Cisbio TNFα (h) Kit Part #62HTNFAPEG & 62HTNFAPEH; https://www.cisbio.com/media/asset/c/i/cisbio_dd_pi_62htnfapeg-62htnfapeh.pdf, accessed Sep. 28, 2020).
Low volume 384 well plates were pre-coated with small molecule library compounds for a final concentration of 20 μM in a 15 μL reaction, or 0.75 μL of 200 μM stock of BB94 in 5% DMSO (final concentration 0.25%). 12.6 μL of cell suspension [8E5/mL; 10,000 cells/well; culture RPMI medium] and pre-incubated at 37° C., 5% CO2, over night. The next day, 1.8 μL of an 800 ng/mL LPS stock was added [final concentration 100 ng/mL in 15 μL assay] and the cells were incubated at 37° C., 5% CO2, for 3 h. Subsequently, 3 μL of the HTRF-mix [used at 1:3 dilution of cisbio HTRF human TNF] was added and the plates were incubated for an additional 2 hrs at 25° C. After an incubation at room temperature for 2 h, the HTRF readout was performed. Then data evaluation for normalization against the 10 μM Batimastat control (=100% […]) was applied.

[2] = system: PMA-stimulated KL2 release from HEK-293 cells (iRhom2/ADAM17 selective substrate); assay: Secondary screen (Example 3b): PMA-stimulated KL2 release from HEK-293 cells, AP readout; type: cell-based; details: Homo sapiens, HEK293, HEK-293 cells expressing KL2-AP, PMA 100 ng/mL, 2 h, read-out: Secondary Screen IC50 KitL2
Procedure: as §1
Expression plasmids for alkaline phosphatase (AP)-fused human KL2 and TGFα had been previously designed and generated through gene synthesis followed by subcloning into the pcDNA3.1(+)/Hygro expression vector. […] Subsequently, DNA amplifications were performed to obtain sufficient amounts of the expression vectors. The quality of DNA and gene sequences were confirmed through restriction digest and Sanger sequencing. In parallel, cell culture of HEK-293 cells was initiated. Master and working cell banks were prepared, scaled up and transfected with the respective constructs by electroporation. During cell culturing, cell density and viability were monitored to ensure optimal conditions for the transfections. After PMA stimulation, AP-coupled KL2 or TGFα were detected by measurement of AP activity in the supernatant.
After electroporation, cells were further cultured in presence of selection antibiotics, hygromycin B, to generate stably transfected polyclonal cell pools. For both assays, KL2 and TGFα shedding, the respective selected pool turned out to be suitable. Final assay conditions were determined for the selected pools. For all experiments, batimastat (BB94, 10 μM) was used as positive control for full inhibition of KL2 or TGFα shedding.
The wells of sterile 384-well flat bottom clear plates for KL2-AP assays were coated with 10 μL of 0.1 mg/mL poly-d-lysine for 3-4 hr at 25° C. or overnight at 4° C., then washed 2× with PBS and patted dry. 60 μL of cells (40,000/well) were added to the sterile 384-well plate and incubated in Optimem (with 2% FCS and 1% Pen-strep) overnight at 37° C. (5% CO2). After incubation overnight, 55 μL medium were removed with a BioTek EL406 and 10 μL of prediluted compounds were added to the cells for a final concentration of 20 μM. After incubation for 15 min, 15 μL of PMA (100 ng/mL final conc.) were added. The cells were incubated for 2 h at 37° C. (5% CO2). Then, the plates were centrifuged for 5 min at 1000 rpm and 3 μL of the supernatant was transferred to a fresh 384 well plate and 9 μL of AP Balance Buffer was added per well. 12 μL of pNPP p-nitrophenyl phosphate (final 1 M pNPP) was added. AP reaction was performed for 1 h at 37° C. The reaction was stopped by addition of 12 μL of NaOH (1 M final conc.), the plates were centrifuged to remove air bubbles and the absorbance of pNP was measured at 405 nm.

SMILES | IC50 [1] [µM] | IC50 [2] [µM]
O=C(c1c(Cl)cccc1Cl)N1CCC(Cc2ccc(F)cc2)CC1 [Compound 3] | < 0.0625 | > 40
Cc1c(C(=O)NCc2cccs2)sc(=O)n1Cc1ccccc1 [Compound 4] | 7.57 | > 40
Cc1c(C(=O)NCc2cccs2)sc(=O)n1Cc1ccccc1F [Compound 5] | 5.21 | > 40
Cc1c(C(=O)NCc2ccco2)sc(=O)n1Cc1ccccc1F [Compound 7] | 3.93 | 22
